The source made the active and inactive calls.
Columns and labels:
Semliki Forest virus [1] = assay: Antiviral activity against Semliki forest virus infected african green monkey Vero cells assessed as reduction in virus-induced cytopathic effect at 50 ug/mL after 96 hrs measured as viral titer per ml by microscopy; format: functional
Semliki Forest virus [2] = assay: Antiviral activity against Semliki forest virus infected african green monkey Vero cells assessed as reduction in virus-induced cytopathic effect at 100 ug/mL after 96 hrs measured as viral titer per ml by microscopy; format: functional
Simplexvirus [3] = assay: Antiviral activity against Herpes simplex virus infected african green monkey Vero cells assessed as reduction in virus-induced cytopathic effect at 100 ug/mL after 96 hrs measured as viral titer per ml by microscopy; format: functional
Enterovirus C [4] = assay: Antiviral activity against Poliovirus infected african green monkey Vero cells assessed as reduction in virus-induced cytopathic effect at 100 ug/mL after 96 hrs measured as viral titer per ml by microscopy; format: functional
Measles morbillivirus [5] = assay: Antiviral activity against Measles virus infected african green monkey Vero cells assessed as reduction in virus-induced cytopathic effect at 100 ug/mL after 96 hrs measured as viral titer per ml by microscopy; format: functional
Enterovirus C [6] = assay: Antiviral activity against Poliovirus infected african green monkey Vero cells assessed as reduction in virus-induced cytopathic effect at 50 ug/mL after 96 hrs measured as viral titer per ml by microscopy; format: functional
Measles morbillivirus [7] = assay: Antiviral activity against Measles virus infected african green monkey Vero cells assessed as reduction in virus-induced cytopathic effect at 50 ug/mL after 96 hrs measured as viral titer per ml by microscopy; format: functional
Simplexvirus [8] = assay: Antiviral activity against Herpes simplex virus infected african green monkey Vero cells assessed as reduction virus-induced cytopathic effect at 50 ug/mL after 96 hrs measured as viral titer per ml by microscopy; format: functional
Semliki Forest virus [9] = assay: Antiviral activity against Semliki forest virus infected african green monkey Vero cells assessed as reduction in virus-induced cytopathic effect at 5 ug/mL after 96 hrs measured as viral titer per ml by microscopy; format: functional
Measles morbillivirus [10] = assay: Antiviral activity against Measles virus infected african green monkey Vero cells assessed as reduction in virus-induced cytopathic effect at 2.5 ug/mL after 96 hrs measured as viral titer per ml by microscopy; format: functional
Simplexvirus [11] = assay: Antiviral activity against Herpes simplex virus infected african green monkey Vero cells assessed as reduction in virus-induced cytopathic effect at 2.5 ug/mL after 96 hrs measured as viral titer per ml by microscopy; format: functional
Measles morbillivirus [12] = assay: Antiviral activity against Measles virus infected african green monkey Vero cells assessed as reduction in virus-induced cytopathic effect at 5 ug/mL after 96 hrs measured as viral titer per ml by microscopy; format: functional
Semliki Forest virus [13] = assay: Antiviral activity against Semliki forest virus infected african green monkey Vero cells assessed as reduction in virus-induced cytopathic effect at 10 ug/mL after 96 hrs measured as viral titer per ml by microscopy; format: functional
Semliki Forest virus [14] = assay: Antiviral activity against Semliki forest virus infected african green monkey Vero cells assessed as reduction in virus-induced cytopathic effect at 2.5 ug/mL after 96 hrs measured as viral titer per ml by microscopy; format: functional
Measles morbillivirus [15] = assay: Antiviral activity against Measles virus infected african green monkey Vero cells assessed as reduction in virus-induced cytopathic effect at 20 ug/mL after 96 hrs measured as viral titer per ml by microscopy; format: functional
Simplexvirus [16] = assay: Antiviral activity against Herpes simplex virus infected african green monkey Vero cells assessed as reduction in virus-induced cytopathic effect at 20 ug/mL after 96 hrs measured as viral titer per ml by microscopy; format: functional
Simplexvirus [17] = assay: Antiviral activity against Herpes simplex virus infected african green monkey Vero cells assessed as reduction in virus-induced cytopathic effect at 5 ug/mL after 96 hrs measured as viral titer per ml by microscopy; format: functional
Semliki Forest virus [18] = assay: Antiviral activity against Semliki forest virus infected african green monkey Vero cells assessed as reduction in virus-induced cytopathic effect at 20 ug/mL after 96 hrs measured as viral titer per ml by microscopy; format: functional
Enterovirus C [19] = assay: Antiviral activity against Poliovirus infected african green monkey Vero cells assessed as reduction in virus-induced cytopathic effect at 5 ug/mL after 96 hrs measured as viral titer per ml by microscopy; format: functional
Enterovirus C [20] = assay: Antiviral activity against Poliovirus infected african green monkey Vero cells assessed as reduction in virus-induced cytopathic effect at 2.5 ug/mL after 96 hrs measured as viral titer per ml by microscopy; format: functional
Enterovirus C [21] = assay: Antiviral activity against Poliovirus infected african green monkey Vero cells assessed as reduction in virus-induced cytopathic effect at 20 ug/mL after 96 hrs measured as viral titer per ml by microscopy; format: functional
Enterovirus C [22] = assay: Antiviral activity against Poliovirus infected african green monkey Vero cells assessed as reduction in virus-induced cytopathic effect at 10 ug/mL after 96 hrs measured as viral titer per ml by microscopy; format: functional
Simplexvirus [23] = assay: Antiviral activity against Herpes simplex virus infected african green monkey Vero cells assessed as reduction in virus-induced cytopathic effect at 10 ug/mL after 96 hrs measured as viral titer per ml by microscopy; format: functional
Measles morbillivirus [24] = assay: Antiviral activity against Measles virus infected african green monkey Vero cells assessed as reduction in virus-induced cytopathic effect at 10 ug/mL after 96 hrs measured as viral titer per ml by microscopy; format: functional
[25] = Therapeutic index, ratio of cytotoxicity against african green monkey Vero cells to antiviral activity against Poliovirus; format: cell-based; conditions: read-out: TI
Vero [26] = assay: Cytotoxicity against Measles virus infected african green monkey Vero cells assessed as monolayer destruction at 100 ug/mL; format: cell-based; conditions: chlorocebus sabaeus
Vero [27] = assay: Cytotoxicity against Semliki forest virus infected african green monkey Vero cells assessed as monolayer destruction at 100 ug/mL; format: cell-based; conditions: chlorocebus sabaeus
[28] = Therapeutic index, ratio of cytotoxicity against african green monkey Vero cells to antiviral activity against Measles virus; format: cell-based; conditions: read-out: TI
[29] = Therapeutic index, ratio of cytotoxicity against african green monkey Vero cells to antiviral activity against Semliki forest virus; format: cell-based; conditions: read-out: TI
[30] = Therapeutic index, ratio of cytotoxicity against african green monkey Vero cells to antiviral activity against Herpes simplex virus; format: cell-based; conditions: read-out: TI
Enterovirus C [31] = assay: Antiviral activity against Poliovirus infected african green monkey Vero cells assessed as reduction of virus-induced cytopathic effect at < 1 ug/mL after 4 days; format: functional, organism-based
Vero [32] = assay: Cytotoxicity against Measles virus infected african green monkey Vero cells assessed as monolayer destruction at 50 ug/mL; format: cell-based; conditions: chlorocebus sabaeus
Vero [33] = assay: Cytotoxicity against Herpes simplex virus infected african green monkey Vero cells assessed as monolayer destruction at 50 ug/mL; format: cell-based; conditions: chlorocebus sabaeus
Vero [34] = assay: Cytotoxicity against Herpes simplex virus infected african green monkey Vero cells assessed as monolayer destruction at 100 ug/mL; format: cell-based; conditions: chlorocebus sabaeus
Vero [35] = assay: Cytotoxicity against Poliovirus infected african green monkey Vero cells assessed as monolayer destruction at 100 ug/mL; format: cell-based; conditions: chlorocebus sabaeus
Vero [36] = assay: Cytotoxicity against Poliovirus infected african green monkey Vero cells assessed as monolayer destruction at > 25 ug/mL; format: cell-based; conditions: chlorocebus sabaeus
Vero [37] = assay: Cytotoxicity against Semliki forest virus infected african green monkey Vero cells assessed as monolayer destruction at 50 ug/mL; format: cell-based; conditions: chlorocebus sabaeus
Vero [38] = assay: Cytotoxicity against african green monkey Vero cells assessed as monolayer destruction at 10 ug/mL after 24 hrs by trypan blue exclusion test; format: cell-based; conditions: chlorocebus sabaeus
Enterovirus C [39] = assay: Antiviral activity against Poliovirus infected african green monkey Vero cells assessed as reduction of virus-induced cytopathic effect at 1 ug/mL after 4 days; format: functional, organism-based
Vero [40] = assay: Cytotoxicity against Poliovirus infected african green monkey Vero cells assessed as monolayer destruction at 50 ug/mL; format: cell-based; conditions: chlorocebus sabaeus
Vero [41] = assay: Cytotoxicity against african green monkey Vero cells assessed as monolayer destruction at 25 ug/mL after 24 hrs by trypan blue exclusion test; format: cell-based; conditions: chlorocebus sabaeus
Vero [42] = assay: Effect on african green monkey Vero cell growth assessed as doubling of cell generation at 1 ug/mL after 24 hrs by trypan blue exclusion test; format: cell-based; conditions: chlorocebus sabaeus
Vero [43] = assay: Cytotoxicity against african green monkey Vero cells assessed as monolayer destruction at 50 ug/mL after 24 hrs by trypan blue exclusion test; format: cell-based; conditions: chlorocebus sabaeus
Enterovirus C [44] = assay: Antiviral activity against Poliovirus infected african green monkey Vero cells assessed as reduction of virus-induced cytopathic effect at 1 ug/mL after 96 hrs by microscopy; format: functional, organism-based

CCOC(=O)c1cc(C(=O)O[C@H]2C[C@H]3CCN(C)[C@H]3[C@@H]3c4cc5c(cc4C(=O)O[C@H]32)OCO5)c(C)nc1C [CLIVIAMARTINE]
1: pTCD50 (Semliki Forest virus [1]) | pTCD50 (Measles morbillivirus [5]) | pTCD50 (Enterovirus C [6]) | pTCD50 (Measles morbillivirus [7])
10: pTCD50 (Semliki Forest virus [2]) | pTCD50 (Simplexvirus [3]) | pTCD50 (Enterovirus C [4]) | pTCD50 (Simplexvirus [8])

Cc1nc(C)c(C(=O)O[C@H]2C[C@H]3CCN(C)[C@H]3[C@@H]3c4cc5c(cc4C(=O)O[C@H]32)OCO5)cc1C(=O)O[C@H]1C[C@H]2CCN(C)[C@H]2[C@@H]2c3cc4c(cc3C(=O)O[C@H]21)OCO4 [CLIVIMINE]
10: pTCD50 (Semliki Forest virus [2]) | pTCD50 (Enterovirus C [4])
1: pTCD50 (Semliki Forest virus [9]) | pTCD50 (Measles morbillivirus [10]) | pTCD50 (Simplexvirus [11]) | pTCD50 (Measles morbillivirus [12]) | pTCD50 (Semliki Forest virus [1]) | pTCD50 (Semliki Forest virus [13]) | pTCD50 (Semliki Forest virus [14]) | pTCD50 (Measles morbillivirus [15]) | pTCD50 (Simplexvirus [16]) | pTCD50 (Simplexvirus [3]) | pTCD50 (Simplexvirus [17]) | pTCD50 (Semliki Forest virus [18]) | pTCD50 (Enterovirus C [19]) | pTCD50 (Enterovirus C [20]) | pTCD50 (Enterovirus C [21]) | pTCD50 (Enterovirus C [22]) | pTCD50 (Measles morbillivirus [5]) | pTCD50 (Simplexvirus [23]) | pTCD50 (Measles morbillivirus [24]) | pTCD50 (Enterovirus C [6]) | pTCD50 (Measles morbillivirus [7]) | pTCD50 (Simplexvirus [8])

CN1CC[C@@H]2C[C@H](O)[C@@H]3OC(=O)c4cc5c(cc4[C@H]3[C@@H]21)OCO5 [CLIVONINE]
10: pTCD50 (Semliki Forest virus [2]) | pTCD50 (Simplexvirus [3]) | pTCD50 (Enterovirus C [4])
1: pTCD50 (Semliki Forest virus [1]) | pTCD50 (Measles morbillivirus [5]) | pTCD50 (Enterovirus C [6]) | pTCD50 (Measles morbillivirus [7]) | pTCD50 (Simplexvirus [8])

O[C@H]1[C@H]2c3cc4c(cc3CN3CCC(=C[C@@H]1O)[C@H]23)OCO4 [LYCORINE]
10000: pTCD50 (Semliki Forest virus [18]) | pTCD50 (Enterovirus C [21])
inactive: Activity (Enterovirus C [31])
100: pTCD50 (Measles morbillivirus [10]) | pTCD50 (Simplexvirus [11]) | pTCD50 (Measles morbillivirus [12]) | pTCD50 (Semliki Forest virus [14]) | pTCD50 (Enterovirus C [19]) | pTCD50 (Enterovirus C [20])
Toxic: Activity (Vero [26]) | Activity (Vero [27]) | Activity (Vero [32]) | Activity (Vero [33]) | Activity (Vero [34]) | Activity (Vero [35]) | Activity (Vero [36]) | Activity (Vero [37]) | Activity (Vero [40]) | Activity (Vero [43])
active: Activity (Enterovirus C [39]) | Activity (Enterovirus C [44])
Non-toxic: Activity (Vero [38]) | Activity (Vero [41])
10: selectivity ratio [25] | selectivity ratio [28] | selectivity ratio [29] | selectivity ratio [30]
Active: Activity (Vero [42])
1000: pTCD50 (Semliki Forest virus [9]) | pTCD50 (Semliki Forest virus [13]) | pTCD50 (Measles morbillivirus [15]) | pTCD50 (Simplexvirus [16]) | pTCD50 (Simplexvirus [17]) | pTCD50 (Enterovirus C [22]) | pTCD50 (Simplexvirus [23]) | pTCD50 (Measles morbillivirus [24])

From ChEMBL document CHEMBL1151400, “Plant antiviral agents. III. Isolation of alkaloids from Clivia miniata Regel (Amaryllidaceae)” (J Nat Prod, 1982)
